We go through 15 compounds from patent US20110105397A1, “METHOD FOR TREATING HEART FAILURE WITH STRESSCOPIN-LIKE PEPTIDES” (priority 2009, published 2011).

The target in the assay is T1, human CRHR2 (Homo sapiens, UniProt Q13324).
T1 construct: expressed in transfected cells
T1 sequence (Q13324 1-411): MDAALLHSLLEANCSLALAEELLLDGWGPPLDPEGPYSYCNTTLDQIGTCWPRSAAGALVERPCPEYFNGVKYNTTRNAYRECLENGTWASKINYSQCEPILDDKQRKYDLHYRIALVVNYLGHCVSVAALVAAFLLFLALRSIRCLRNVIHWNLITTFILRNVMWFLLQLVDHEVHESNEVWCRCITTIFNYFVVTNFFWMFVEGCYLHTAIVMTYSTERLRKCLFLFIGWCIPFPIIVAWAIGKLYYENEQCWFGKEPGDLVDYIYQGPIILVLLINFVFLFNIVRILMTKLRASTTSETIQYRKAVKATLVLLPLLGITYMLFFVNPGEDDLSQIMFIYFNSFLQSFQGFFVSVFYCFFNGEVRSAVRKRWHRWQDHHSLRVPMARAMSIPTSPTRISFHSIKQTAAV
Kind of assay: cAMP assay, h-CRHR2 transfected SK-N-MC cells. It counts as cell-based. The conditions noted are these: for EC50: read-out: pA50 (converted); for Log DR [M]: h-SCP control pA50 minus test compound pA50 within the same assay batch; for αmax: normalized to the maximum response to h-SCP. The method, then:
The concentration required for 50% maximum effect (A50) was 0.4 nM.
Human CRHR1 (accession number X72304) or CRHR2 (accession number U34587) were cloned into pcDNA3.1/Zeo expression vector and stably transfected into SK—N-MC cells by electroporation. Cells were maintained in MEM w/Earl's Salt with 10% FBS, 50 I.U. penicillin, 50 μg/ml streptomycin, 2 mM L-glutamine, 1 mM sodium pyruvate and 0.1 mM non-essential amino acids, 600 μg/ml G418. Cells were grown at 37° C. in 5% CO2
Cells were plated in 96-well tissue culture dishes (Biocoat from BD Biosciences) overnight at 50,000 cell/well. Cells were washed with PBS then resuspended in DMEM F-12 without phenol red, containing 10 μM isobutylmethylxanthine (IBMX). Cells were incubated with the peptides at concentrations ranging from 1 pM to 10 μM for 60 min at 37° Celsius. […] Forskolin (10 μM), a direct stimulant of adenylate cyclase, was used as positive control. The assays were stopped by the addition of 0.5 M HCl and mixing by orbital rotation for 2 h at 4° Celsius.
To assess the activity of the inventive polypeptide at the CRHR2, an intracellular cAMP measurement test using a Flash plate radioactive assay (Catalog No. Cus56088; Perkin Elmer, Mass., U.S.A.) was employed.
Transfected SK—N-MC cells were plated in 96-well Biocoat tissue culture dishes (BD Biosciences, San Jose, Calif., U.S.A) overnight at 50,000 cell/well. Cells were first washed with PBS and then suspended with DMEM/F-12 without phenol red, containing […]. Suspended cells were transferred into a 96-well flash plate coated with scintillant fluid. Cells were incubated with peptides ranging from 1 pM to 1 μM, for 60 min, at 37° Celsius. Forskolin at 10 μM was used as positive control. After ligand stimulation, cells were lysed by the addition of 0.5M HCl and mixed by orbital rotation for 2 h at 4° Celsius in order to release intracellular cAMP into the media.
Media containing released intracellular cAMP was transferred to a 96-well flash plate coated with scintillant fluid containing an anti-cAMP antibody. In this assay, intracellular cAMP competes with ^125I-labeled cAMP binding to the antibody. To generate a standard curve, cAMP ranging from 2.5 to 250 pmoles/ml was included in the experiment. [^125I]-cAMP was measured on a TopCount scintillation counter (Perkin Elmer, Mass., U.S.A).
Individual agonist concentration-response curve data were fitted to the Hill equation, see formula below, using GraphPad Prism (Graphpad Software, La Jolla, Calif., U.S.A.), to provide estimates of agonist concentration needed to generate one-half maximal response (A50), and the maximal asymptote (α) and Hill slope (nH) parameters. In this equation, [A] is the agonist concentration and E is the measured effect:
For display purposes the mean fitted parameter estimates were used to generate a single E/[A] curve shown superimposed on the mean experimental data. Potency estimates for agonists, pA50, are expressed as the negative logarithm of the midpoint of each curve and listed with their standard error of measurement (SEM). Logarithm base 10 of the agonist dose ratio (Log DR) values were calculated by subtraction of the test compound pA50 value from the corresponding h-SCP (SEQ ID NO:1) control pA50 value within the same assay batch. The SEM values of the Log DR values are given by the square root of the sum of the squared SEM values of the h-SCP (SEQ ID NO:1) control and test compound pA50 values.
Human and rat peptides (see Table 10) were used on the stimulation of h-CRHR1 or h-CRHR2 transfected SK—N-MC cells in the cAMP flash plate assay. Peptides were incubated for 1 hr at 37° Celsius. Curves were calculated using non-linear regression sigmoidal concentration-response analysis calculation in GraphPad Prism. The so obtained pA50 values are shown in Table 11 in addition to literature values. […]

Setting [1] is: Table 13, cysteine mutation, N-ethylmaleimide capping, pegylation.
Where [2] appears, read: Table 12, amidation and N-terminal deletions, normalized to maximum response to h-SCP, 3-5 replicate experiments.

Several values for one entry are separate records, joined by “and”; a condition that tells them apart may be missing. Equal values may be shown once. Read-outs that look alike come from different tables or passages of the source. Where a SMILES comes first, the peptide text is derived from it. Where no end group is shown, it is not given here. The star is where a group is joined. Succinimide(1-Et,3-yl) = CCN1C(=O)CC(*)C1=O

“TKFTLSLDVCTNIMNLLFNIAKAKNLRAQAAANAHLMAQI-NH2 [SEQ ID NO: 11, TKFTLSLDVCTNIMNLLFNIAKAKNLRAQAAANAHLMAQI-NH2]”: under setting [1], the EC50 was 1.74 nM. Further, the “Log DR [M]” value (Table 13) worked out at 0.82.

As for “TKFTLSCDVPTNIMNLLFNIAKAKNLRAQAAANAHLMAQI-NH2 [SEQ ID NO: 8, TKFTLSCDVPTNIMNLLFNIAKAKNLRAQAAANAHLMAQI-NH2]”, under setting [1], the EC50 is about 151 nM. Besides, the “Log DR [M]” value (Table 13) stood at 2.86.

With `CC[C@H](C)[C@H](NC(=O)[C@H](CCC(N)=O)NC(=O)[C@H](C)NC(=O)[C@H](CCSC)NC(=O)[C@H](CC(C)C)NC(=O)[C@H](Cc1c[nH]cn1)NC(=O)[C@H](C)NC(=O)[C@H](CSC1CC(=O)N(CC)C1=O)NC(=O)[C@H](C)NC(=O)[C@H](C)NC(=O)[C@H](C)NC(=O)[C@H](CCC(N)=O)NC(=O)[C@H](C)NC(=O)[C@H](CCCNC(=N)N)NC(=O)[C@H](CC(C)C)NC(=O)[C@H](CC(N)=O)NC(=O)[C@H](CCCCN)NC(=O)[C@H](C)NC(=O)[C@H](CCCCN)NC(=O)[C@H](C)NC(=O)[C@@H](NC(=O)[C@H](CC(N)=O)NC(=O)[C@H](Cc1ccccc1)NC(=O)[C@H](CC(C)C)NC(=O)[C@H](CC(C)C)NC(=O)[C@H](CC(N)=O)NC(=O)[C@H](CCSC)NC(=O)[C@@H](NC(=O)[C@H](CC(N)=O)NC(=O)[C@@H](NC(=O)[C@@H]1CCCN1C(=O)[C@@H](NC(=O)[C@H](CC(=O)O)NC(=O)[C@H](CC(C)C)NC(=O)[C@H](CO)NC(=O)[C@H](CC(C)C)NC(=O)[C@@H](NC(=O)[C@H](Cc1ccccc1)NC(=O)[C@H](CCCCN)NC(=O)[C@@H](N)[C@@H](C)O)[C@@H](C)O)C(C)C)[C@@H](C)O)[C@@H](C)CC)[C@@H](C)CC)C(N)=O` (some centres unmarked) [SEQ ID NO: 44, TKFTLSLDVPTNIMNLLFNIAKAKNLRAQAAAC(-NES)AH LMAQI-NH2] (H-TKFTLSLDVPTNIMNLLFNIAKAKNLRAQAAAC(Succinimide(1-Et,3-yl))AHLMAQI-NH2), the EC50 under setting [1] is about 31.6 nM. Under “Table 13”, the “Log DR [M]” value is listed as about 1.97.

On to “H-TKFTLSLDVPTNIMNLLCNIAKAKNLRAQAAANAHLMAQI-NH2 [SEQ ID NO: 19, TKFTLSLDVPTNIMNLLCNIAKAKNLRAQAAANAHLMAQI-NH2]”, for which the EC50 under setting [1] was 9.77 nM. For the same compound, under “Table 13”, the “Log DR [M]” value was 1.67.

For the compound “CKFTLSLDVPTNIMNLLFNIAKAKNLRAQAAANAHLMAQI-NH2 [SEQ ID NO: 2, CKFTLSLDVPTNIMNLLFNIAKAKNLRAQAAANAHLMAQI-NH2]”, under setting [1], the EC50 is 1.07 nM. Further, the “Log DR [M]” value (Table 13) came to 0.72.

“TKFTLSLDVPTNIMNLLFNIAKAKCLRAQAAANAHLMAQI-NH2 [SEQ ID NO: 26, TKFTLSLDVPTNIMNLLFNIAKAKCLRAQAAANAHLMAQI-NH2]”: under setting [1], the EC50 is 0.363 nM. Further, the “Log DR [M]” value (Table 13) amounted to 0.08.

Turning to “TKFTLSLDVPTNIMNLLFNIAKAKNLRAQAAANAHLMACI-NH2 [SEQ ID NO: 40, TKFTLSLDVPTNIMNLLFNIAKAKNLRAQAAANAHLMACI-NH2]”, the EC50 under setting [1] was 0.832 nM. Further, the “Log DR [M]” value (Table 13) was 0.55.

Take “TKFTLSLDVPTNIMNLLFNIAKAKNLRAQAAANAHLMAQC-NH2 [SEQ ID NO: 41, TKFTLSLDVPTNIMNLLFNIAKAKNLRAQAAANAHLMAQC-NH2]”: under setting [1], the EC50 is 35.5 nM. In addition, the “Log DR [M]” value (Table 13) is 2.07.

As to “LSLDVPTNIMNLLFNIAKAKNLRAQAAANAHLMAQI-NH2 [SEQ ID NO: 109, LSLDVPTNIMNLLFNIAKAKNLRAQAAANAHLMAQI-NH2]”, where the note is “Table 12”, the nH was determined as 0.74 and the αmax is listed as 109.6. Besides, the EC50 under setting [2] is 46.8 nM and 45.7 nM.

Turning to “TKFTLSLDVPTNICNLLFNIAKAKNLRAQAAANAHLMAQI-NH2 [SEQ ID NO: 15, TKFTLSLDVPTNICNLLFNIAKAKNLRAQAAANAHLMAQI-NH2]”, under setting [1], the EC50 is 2.09 nM. Besides, under “Table 13”, the “Log DR [M]” value is given as 0.90.

Regarding `CC[C@H](C)[C@H](NC(=O)[C@H](CCC(N)=O)NC(=O)[C@H](C)NC(=O)[C@H](CCSC)NC(=O)[C@H](CC(C)C)NC(=O)[C@H](Cc1c[nH]cn1)NC(=O)[C@H](C)NC(=O)[C@H](CC(N)=O)NC(=O)[C@H](C)NC(=O)[C@H](C)NC(=O)[C@H](C)NC(=O)[C@H](CCC(N)=O)NC(=O)[C@H](CSC1CC(=O)N(CC)C1=O)NC(=O)[C@H](CCCNC(=N)N)NC(=O)[C@H](CC(C)C)NC(=O)[C@H](CC(N)=O)NC(=O)[C@H](CCCCN)NC(=O)[C@H](C)NC(=O)[C@H](CCCCN)NC(=O)[C@H](C)NC(=O)[C@@H](NC(=O)[C@H](CC(N)=O)NC(=O)[C@H](Cc1ccccc1)NC(=O)[C@H](CC(C)C)NC(=O)[C@H](CC(C)C)NC(=O)[C@H](CC(N)=O)NC(=O)[C@H](CCSC)NC(=O)[C@@H](NC(=O)[C@H](CC(N)=O)NC(=O)[C@@H](NC(=O)[C@@H]1CCCN1C(=O)[C@@H](NC(=O)[C@H](CC(=O)O)NC(=O)[C@H](CC(C)C)NC(=O)[C@H](CO)NC(=O)[C@H](CC(C)C)NC(=O)[C@@H](NC(=O)[C@H](Cc1ccccc1)NC(=O)[C@H](CCCCN)NC(=O)[C@@H](N)[C@@H](C)O)[C@@H](C)O)C(C)C)[C@@H](C)O)[C@@H](C)CC)[C@@H](C)CC)C(N)=O` (some centres unmarked) [SEQ ID NO: 47, TKFTLSLDVPTNIMNLLFNIAKAKNLRC(-NES)QA AANAH LMAQI-NH2] (H-TKFTLSLDVPTNIMNLLFNIAKAKNLRC(Succinimide(1-Et,3-yl))QAAANAHLMAQI-NH2), the EC50 under setting [1] was 0.316 nM. For the same compound, the “Log DR [M]” value (Table 13) is given as −0.03.

For the compound “TLSLDVPTNIMNLLFNIAKAKNLRAQAAANAHLMAQI-NH2 [SEQ ID NO: 108, TLSLDVPTNIMNLLFNIAKAKNLRAQAAANAHLMAQI-NH2]”, where the note is “Table 12”, the nH came to 0.82 and the αmax came out at 106.3. Under setting [2], the EC50 was 3.24 nM.

Turning to “TKFTCSLDVPTNIMNLLFNIAKAKNLRAQAAANAHLMAQI-NH2 [SEQ ID NO: 6, TKFTCSLDVPTNIMNLLFNIAKAKNLRAQAAANAHLMAQI-NH2]”, the EC50 under setting [1] was 0.851 nM. For the setting “Table 13”, the “Log DR [M]” value was determined as 0.61.

Take “TKCTLSLDVPTNIMNLLFNIAKAKNLRAQAAANAHLMAQI-NH2 [SEQ ID NO: 4, TKCTLSLDVPTNIMNLLFNIAKAKNLRAQAAANAHLMAQI-NH2]”: under setting [1], the EC50 was 2.24 nM. The “Log DR [M]” value (Table 13) is 1.03.

With “TKFTLSLDVPTNIMNLLFNIAKCKNLRAQAAANAHLMAQI-NH2 [SEQ ID NO: 24, TKFTLSLDVPTNIMNLLFNIAKCKNLRAQAAANAHLMAQI-NH2]”, under setting [1], the EC50 is 1.15 nM. In addition, the “Log DR [M]” value (Table 13) was 0.74.
